Assay results taken from patent US20100317698A1, “Polysubstituted Pyridinylaminoalkylene- and Pyridinyloxyalkylene-Cyclopropanamine Compounds, a Process for Their Preparation and Pharmaceutical Compositions Containing Them” (LES LABORATOIRES SERVIER, priority 2006, published 2010).
Where a name gives a salt, the structure may show the parent alone.

Biological target: T1, type α4β2 central nicotinic receptors (Rattus norvegicus, UniProt P09483+P12390)
T1 construct: from tissue; host or cells: rat brain membranes
T1 sequence (P09483 31-630): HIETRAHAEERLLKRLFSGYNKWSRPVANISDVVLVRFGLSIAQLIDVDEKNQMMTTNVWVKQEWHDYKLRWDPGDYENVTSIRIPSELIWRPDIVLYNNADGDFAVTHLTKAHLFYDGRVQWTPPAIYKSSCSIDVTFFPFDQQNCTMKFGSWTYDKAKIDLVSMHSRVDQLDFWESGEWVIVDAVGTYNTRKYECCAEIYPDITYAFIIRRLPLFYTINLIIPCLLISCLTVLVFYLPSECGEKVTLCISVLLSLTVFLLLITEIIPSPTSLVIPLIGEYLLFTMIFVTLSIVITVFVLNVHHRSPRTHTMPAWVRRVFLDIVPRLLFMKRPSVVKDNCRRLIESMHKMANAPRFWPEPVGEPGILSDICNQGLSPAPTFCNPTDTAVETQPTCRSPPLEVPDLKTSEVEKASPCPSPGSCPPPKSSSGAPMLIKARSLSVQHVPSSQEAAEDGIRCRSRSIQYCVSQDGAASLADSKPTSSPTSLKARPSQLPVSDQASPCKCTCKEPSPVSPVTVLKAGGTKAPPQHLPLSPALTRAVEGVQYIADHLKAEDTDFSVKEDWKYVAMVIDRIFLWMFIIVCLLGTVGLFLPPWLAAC
T1 sequence (P12390 25-500): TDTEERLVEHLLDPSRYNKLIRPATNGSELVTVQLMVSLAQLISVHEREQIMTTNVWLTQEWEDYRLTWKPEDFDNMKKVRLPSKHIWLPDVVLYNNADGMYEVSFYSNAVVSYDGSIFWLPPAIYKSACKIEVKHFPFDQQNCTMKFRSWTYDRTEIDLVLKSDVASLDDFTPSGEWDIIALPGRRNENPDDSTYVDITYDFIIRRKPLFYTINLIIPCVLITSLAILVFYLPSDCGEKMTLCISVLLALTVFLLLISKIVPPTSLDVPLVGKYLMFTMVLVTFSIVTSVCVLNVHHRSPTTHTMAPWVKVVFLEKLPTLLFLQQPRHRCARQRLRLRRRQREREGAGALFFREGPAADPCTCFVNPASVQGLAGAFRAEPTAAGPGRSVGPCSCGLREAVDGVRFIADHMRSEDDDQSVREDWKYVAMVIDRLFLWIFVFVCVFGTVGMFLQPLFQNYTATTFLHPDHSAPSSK
Test: Displacement of binding of [3H]-cytisine to type α4β2 nicotinic receptors of rat brain
Settings: rat brain membranes, read-out: Affinity (Ki, nM) for type α4β2 receptors
Procedure: This study, carried out according to the technique described in Molec. Pharmacol., 1990, 39; 9-12, is aimed at determining the affinity of compounds of the present invention for type […] central nicotinic receptors.
Membranes (250 μg/ml) of rat brain are incubated (2 hours, 20° C.) in the presence of a series of concentrations (0.01-10 μM) of each compound of the present invention (diluted starting from a 10 mM stock solution in DMSO) and [^3H]-cytisine (S.A.: 1184 GBq/mmol: 2 nM) in phosphate buffer (NaH2PO4 20 mM, pH 7.4); final volume: 250 μl. The non-specific binding is determined by incubating membranes in the presence of 10 μM of (−)nicotine. The affinity of the compounds of the present invention for type α4β2 central nicotinic receptors is characterised by determination of the Ki.

Molecule	Ki [nM]
CNC1(COc2cncc(-c3ccc(C)cc3)c2)CC1.Cl.Cl [Example 2, Methyl[1-({[5-(4-methylphenyl)pyridin-3-yl]oxy}methyl)cyclopropyl]amine dihydrochloride]	8.5
[1-({[5-(4-Methoxyphenyl)pyridin-3-yl]oxy}methyl)cyclopropyl]methylamine dihydrochloride [Example 11]	0.8
[1-({[5-(4-Nitrophenyl)pyridin-3-yl]oxy}methyl)cyclopropyl]methylamine dihydrochloride [Example 6]	2.3
[1-({[6-Chloro-5-(4-methylphenyl)pyridin-3-yl]oxy}methyl)cyclopropyl]methylamine dihydrochloride [Example 10]	0.7
[1-({[5-(3,5-Dichlorophenyl)pyridin-3-yl]oxy}methyl)cyclopropyl]methylamine dihydrochloride [Example 52]	1.4
NCC1(COc2cnc(Cl)c(-c3ccc(F)cc3)c2)CC1 [Example 26, [1-({[6-Chloro-5-(4-fluorophenyl)pyridin-3-yl]oxy}methyl)cyclopropyl]methylamine hydrochloride]	0.3
[1-({[6-Chloro-5-(3-fluorophenyl)pyridin-3-yl]oxy}methyl)cyclopropyl]methylamine hydrochloride [Example 32]	0.4

Tested on: not given
Test: not given
Settings: not given

Molecule	melting point [°C]
CNC1(COc2cncc(-c3ccc(C)cc3)c2)CC1.Cl.Cl [Example 2, Methyl[1-({[5-(4-methylphenyl)pyridin-3-yl]oxy}methyl)cyclopropyl]amine dihydrochloride]	218 to 223
CNC1(COc2cnc(Cl)c(-c3cc(Cl)cc(Cl)c3)c2)CC1.Cl	186 to 188
CNC1(COc2cncc(-c3cccc(C#N)c3)c2)CC1.Cl.Cl	110 to 120
CNC1(CNc2cnc(Cl)c(-c3cccnc3)c2)CC1.Cl.Cl.Cl	180 to 185
CNC1(COc2cnc(Cl)c(-c3cc(F)ccc3F)c2)CC1.Cl	140 to 142
CNC1(CN(C)c2cnc(C)c(-c3ccncc3)c2)CC1.Cl.Cl.Cl	182 to 187
CNC1(CN(C)c2cnc(Cl)c(-c3ccncc3)c2)CC1.Cl.Cl	110 to 120
CNC1(CNc2cnc(C)c(-c3ccc(C(=O)O)cc3)c2)CC1.Cl.Cl	241 to 245
CNC1(COc2cncc(-c3ccccc3C)c2)CC1.Cl.Cl	192 to 196
CNC1(COc2cncc(-c3cc(OC)c(OC)c(OC)c3)c2)CC1.Cl	116 to 120
CNC1(COc2cnc(Cl)c(-c3cc(Cl)ccc3Cl)c2)CC1.Cl	140 to 142
CNC1(CNc2cnc(C)c(-c3ccncc3)c2)CC1.Cl.Cl.Cl	240 to 248
CNC1(CN(C)c2cnc(C)c(-c3ccc(N)cc3)c2)CC1.Cl.Cl.Cl	235 to 240
CNC1(COc2cnc(Cl)c(-c3cccc(NC(C)=O)c3)c2)CC1.Cl	220 to 222
CNC1(CN(C)c2cnc(Cl)c(-c3ccc(C(=O)O)cc3)c2)CC1.Cl.Cl	138 to 145
CNC1(COc2cnc(C)c(-c3cccc(C#N)c3)c2)CC1.Cl.Cl	238 to 242
CNC1(CNc2cnc(Cl)c(-c3ccc(C(=O)O)cc3)c2)CC1.Cl.Cl	175 to 182
CNC1(CNc2cnc(Cl)c(-c3cccc(C(=O)O)c3)c2)CC1.Cl.Cl	140 to 145
CNC1(COc2cnc(F)c(-c3cccc(C#N)c3)c2)CC1.Cl	211 to 215
Cl.Cl.Cl.NCC1(COc2cncc(-c3cccc(N)c3)c2)CC1	185 to 190
CNC1(COc2cnc(-c3ccc(C#N)cc3)c(-c3ccc(C#N)cc3)c2)CC1.Cl.Cl	205 to 208
Cl.Cl.NCC1(COc2cncc(-c3cccc([N+](=O)[O-])c3)c2)CC1	220 to 225
CNC1(CNc2cnc(C)c(-c3ccc(N)cc3)c2)CC1.Cl.Cl.Cl	190 to 200
CNC1(CNc2cncc(-c3cccc(C(=O)O)c3)c2)CC1.Cl.Cl	248 to 250
CNC1(COc2cncc(-c3cc(C(F)(F)F)cc(C(F)(F)F)c3)c2)CC1.Cl	132 to 136

Continued, values first:

melting point [°C]	Molecule
130 to 135	Cl.Cl.NCC1(COc2cnc(Cl)c(-c3ccccc3)c2)CC1
220 to 224	CNC1(COc2cnc(C)c(-c3ccc(C#N)cc3)c2)CC1.Cl.Cl
172 to 176	CNC1(COc2cnc(Cl)c(-c3ccc(N=C=S)cc3)c2)CC1.Cl
144 to 148	CNC1(COc2cnc(Cl)c(-c3ccc(SC)cc3)c2)CC1.Cl.Cl
230 to 235	Cl.Cl.NCC1(COc2cncc(-c3cccc(Cl)c3)c2)CC1
216 to 220	CNC1(COc2cnc(Cl)c(-c3ccc(O)cc3)c2)CC1.Cl.Cl
223 to 227	Cc1ncc(OCC2(CN)CC2)cc1-c1cccc(Cl)c1.Cl.Cl
210 to 214	Cl.Cl.NCC1(COc2cncc(-c3cccc(F)c3)c2)CC1
228 to 232	CNC1(COc2cnc(Cl)c(-c3cccc(C#N)c3)c2)CC1.Cl
208 to 210	COc1ccc(-c2cc(OCC3(N(C)C)CC3)cnc2Cl)cc1.Cl
207 to 211	COc1ccc(-c2cc(OCC3(N)CC3)cnc2Cl)cc1.Cl.Cl
225 to 230	Cl.Cl.NCC1(COc2cnc(F)c(-c3ccc(N)cc3)c2)CC1
158 to 161	Cl.Cl.NCC1(COc2cnc(F)c(-c3cccc(N)c3)c2)CC1
90 to 105	CNC1(COc2cnc(F)c(-c3ccc(C#N)cc3)c2)CC1.Cl
126 to 130	Cl.NCC1(COc2cnc(F)c(-c3cccc(Cl)c3)c2)CC1
215 to 220	COc1ccc(-c2cncc(OCC3(CN)CC3)c2)cc1.Cl.Cl
55 to 60	Cl.NCC1(COc2cnc(F)c(-c3ccc(Cl)cc3)c2)CC1
188 to 192	Cl.Cl.NCC1(COc2cncc(-c3cc(F)ccc3F)c2)CC1
140 to 144	CNC1(COc2cnc(Cl)c(-c3ccc(NC(=O)CCl)cc3)c2)CC1.Cl
195 to 200	Cl.Cl.NCC1(COc2cncc(-c3cc(Cl)ccc3Cl)c2)CC1
130 to 132	Cc1ccccc1-c1cc(OCC2(CN)CC2)cnc1Cl.Cl
197 to 200	CCc1ccc(-c2cncc(OCC3(CN)CC3)c2)cc1.Cl.Cl
220 to 225	Cl.Cl.NCC1(COc2cnc(-c3ccc(Cl)cc3)c(-c3ccc(Cl)cc3)c2)CC1

melting point [°C]	Molecule
138 to 140	COc1cc(-c2cc(OCC3(CN)CC3)cnc2Cl)cc(OC)c1OC.Cl
215 to 218	Cc1cccc(-c2cncc(OCC3(CN)CC3)c2)c1.Cl.Cl
208 to 213	Cl.Cl.NCC1(COc2cncc(-c3ccc(Cl)cc3)c2)CC1
211 to 215	CNC1(COc2cnc(F)c(-c3ccc(C(=O)O)cc3)c2)CC1.Cl.Cl
194 to 199	Cc1ncc(OCC2(CN)CC2)cc1-c1ccc(Cl)cc1.Cl.Cl
190 to 196	CNC1(CNc2cnc(Cl)c(-c3ccc(N)cc3)c2)CC1.Cl.Cl
210 to 215	Cl.Cl.NCC1(COc2cnc(Cl)c(-c3cccnc3)c2)CC1
145 to 150	Cl.NCC1(COc2cnc(Cl)c(-c3ccc([N+](=O)[O-])cc3)c2)CC1
229 to 232	Cl.NCC1(COc2cnc(Cl)c(-c3cccc([N+](=O)[O-])c3)c2)CC1
215 to 220	Cl.Cl.NCC1(COc2cnc(-c3ccc([N+](=O)[O-])cc3)c(-c3ccc([N+](=O)[O-])cc3)c2)CC1
182 to 188	Cl.NCC1(COc2cnc(Cl)c(-c3cc(C(F)(F)F)cc(C(F)(F)F)c3)c2)CC1
222 to 228	Cc1ncc(OCC2(CN)CC2)cc1-c1cccc(N)c1.Cl.Cl.Cl
245 to 250	Cc1ncc(OCC2(CN)CC2)cc1-c1ccc(N)cc1.Cl.Cl.Cl
182 to 186	Cl.NCC1(COc2cnc(Cl)c(-c3c(Cl)cccc3Cl)c2)CC1
182 to 184	Cl.NCC1(COc2cnc(Cl)c(-c3cccc(Cl)c3)c2)CC1
240 to 243	Cl.Cl.NCC1(COc2cnc(Cl)c(-c3ccc(N)cc3)c2)CC1
112 to 114	CCc1ccc(-c2cc(OCC3(CN)CC3)cnc2Cl)cc1.Cl.Cl
130	CNC1(COc2cnc(Cl)c(-c3ccc(C(N)=O)cc3)c2)CC1.Cl
152 to 154	Cc1cccc(-c2cc(OCC3(CN)CC3)cnc2Cl)c1.Cl
142 to 146	CNC1(COc2cnc(Cl)c(-c3ccc(CO)cc3)c2)CC1.Cl.Cl
125 to 130	Cl.Cl.NCC1(COc2cnc(Cl)c(-c3ccncc3)c2)CC1
146 to 148	CCOC(=O)c1ccc(-c2cc(OCC3(NC)CC3)cnc2Cl)cc1.Cl.Cl
